Results taken from patent US20210221866A1, “PROTEASE-RESISTANT LIPIDATED GLP-1 ANALOGS” (MEDIMMUNE LIMITED, priority 2015, published 2021).
Square brackets hold non-standard residues; d marks the D form. Peptide text beside a SMILES is read from it. αMeF = C[C@](N)(Cc1ccccc1)C(=O)O; αMeK = C[C@](N)(CCCCN)C(=O)O; αMeS = C[C@](N)(CO)C(=O)O; Aib = CC(C)(N)C(=O)O

Target: T1, human GLP-1 receptor (GLP-1R) (Homo sapiens, UniProt P43220)
T1 construct: expressed in transfected cells; host or cells: HEK293 cells or CHO cells
Test: cAMP assay, human GLP-1R cells
Type: cell-based
Conditions: cAMP activity; mean of n1 and n2; read-out: Mean pM GLP-1R
Protocol: Sample dilutions are made in duplicate.
A frozen cryo-vial of cells expressing the receptor of interest is thawed rapidly in a water-bath, transferred to pre-warmed assay buffer and spun at 240×g for 5 minutes. Cells are re-suspended in assay buffer at a batch-dependent optimized concentration (e.g. hGCGR cells at 2×10^5 cells/ml, hGLP-1R and hGIPR cells at 1×10^5 cells/ml).
To this, 5 μL cell suspension is added and the plates incubated at room temperature for 30 minutes.
cAMP levels are measured using a commercially available cAMP dynamic 2 HTRF kit (Cisbio, Cat #62AM4PEJ), following the two step protocol as per manufacturer's recommendations. In brief; anti-cAMP cryptate (donor fluorophore) and cAMP-d2 (acceptor fluorophore) are made up separately by diluting each 1/20 in conjugate & lysis buffer provided in the kit. 5 μL anti-cAMP cryptate is added to wells of the assay plate, and 5 μL cAMP-d2 is added to wells except non-specific binding (NSB) wells, to which conjugate and lysis buffer are added. […] EC50 values of the synthetic peptides determined in cAMP assays are then determined.
Data is transformed to % Delta F as described in the manufacturer's guidelines and analyzed by 4-parameter logistic fit to determine EC50 values. […] To compare the balance of activities at the GLP-1R and GCGR between different peptides and across different conditions, these can be correlated, where the EC50's are related to those of comparator peptides.

T1 sequence (P43220 24-463): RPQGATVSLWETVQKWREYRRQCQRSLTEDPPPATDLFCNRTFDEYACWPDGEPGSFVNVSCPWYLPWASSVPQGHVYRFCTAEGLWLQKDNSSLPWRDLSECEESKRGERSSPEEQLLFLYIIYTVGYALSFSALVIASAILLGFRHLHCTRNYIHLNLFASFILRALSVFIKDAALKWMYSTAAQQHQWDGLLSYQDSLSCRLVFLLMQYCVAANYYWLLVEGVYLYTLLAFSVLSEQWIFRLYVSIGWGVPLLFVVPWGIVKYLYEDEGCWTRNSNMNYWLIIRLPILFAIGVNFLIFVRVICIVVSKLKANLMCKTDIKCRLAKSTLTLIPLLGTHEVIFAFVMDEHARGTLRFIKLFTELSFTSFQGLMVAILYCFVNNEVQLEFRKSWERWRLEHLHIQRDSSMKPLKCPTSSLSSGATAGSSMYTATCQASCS

| SMILES | EC50 [pM] |
| --- | --- |
| CC[C@H](C)[C@H](NC(=O)[C@](C)(Cc1ccccc1)NC(=O)[C@H](CCC(=O)O)NC(=O)[C@](C)(CCCCN)NC(=O)[C@H](C)NC(=O)[C@H](C)NC(=O)[C@H](CCC(=O)O)NC(=O)CNC(=O)[C@H](CCC(=O)O)NC(=O)[C@@H](NC(=O)[C@](C)(Cc1ccccc1)NC(=O)[C@H](CO)NC(=O)[C@H](CO)NC(=O)[C@@H](NC(=O)[C@H](CC(=O)O)NC(=O)[C@H](CO)NC(=O)[C@@H](NC(=O)[C@](C)(Cc1ccccc1)NC(=O)[C@H](CO)NC(=O)CNC(=O)[C@H](CCC(=O)O)NC(=O)C(C)(C)NC(=O)[C@@H](N)Cc1c[nH]cn1)[C@@H](C)O)C(C)C)C(C)C)C(=O)N[C@@H](C)C(=O)N[C@@](C)(Cc1ccccc1)C(=O)N[C@H](C(=O)N[C@H](C(=O)N[C@@](C)(CCCCN)C(=O)NCC(=O)NCC(N)=O)C(C)C)C(C)C [compound 10] (H-H[Aib]EGS[αMeF]TSDVSS[αMeF]VEGEAA[αMeK]E[αMeF]IA[αMeF]VV[αMeK]GG-NH2) | 90 |
| CC(C)[C@H](NC(=O)[C@H](CCC(=O)O)NC(=O)[C@H](CO)NC(=O)[C@H](CO)NC(=O)[C@](C)(Cc1ccccc1)NC(=O)[C@H](CO)NC(=O)CNC(=O)[C@H](CCC(=O)O)NC(=O)C(C)(C)NC(=O)[C@@H](N)Cc1c[nH]cn1)C(=O)N[C@@H](CO)C(=O)N[C@@H](CO)C(=O)N[C@@](C)(Cc1ccccc1)C(=O)N[C@H](C(=O)N[C@@H](CCC(=O)O)C(=O)NCC(=O)N[C@@H](CCC(=O)O)C(=O)N[C@@H](C)C(=O)N[C@@H](C)C(=O)N[C@@](C)(CCCCN)C(=O)N[C@@H](CCC(=O)O)C(=O)N[C@@](C)(Cc1ccccc1)C(=O)N[C@H](C(=O)N[C@@H](C)C(=O)N[C@@](C)(Cc1ccccc1)C(=O)N[C@H](C(=O)N[C@H](C(=O)N[C@@](C)(CCCCN)C(=O)NCC(=O)NCC(N)=O)C(C)C)C(C)C)C(C)C)C(C)C [compound 12] (H-H[Aib]EGS[αMeF]SSEVSS[αMeF]VEGEAA[αMeK]E[αMeF]VA[αMeF]VV[αMeK]GG-NH2; N-terminus assumed) | 2100 |
| CC[C@H](C)[C@H](NC(=O)[C@](C)(Cc1ccccc1)NC(=O)[C@H](CCC(=O)O)NC(=O)[C@](C)(CCCCN)NC(=O)[C@H](C)NC(=O)[C@H](C)NC(=O)[C@H](CCC(=O)O)NC(=O)CNC(=O)[C@H](CCC(=O)O)NC(=O)[C@H](CC(C)C)NC(=O)[C@](C)(Cc1ccccc1)NC(=O)[C@H](CO)NC(=O)[C@](C)(CO)NC(=O)[C@@H](NC(=O)[C@H](CC(=O)O)NC(=O)[C@H](CCC(=O)O)NC(=O)[C@@H](NC(=O)[C@](C)(Cc1ccccc1)NC(=O)[C@H](CO)NC(=O)CNC(=O)[C@H](CCC(=O)O)NC(=O)C(C)(C)NC(=O)[C@@H](N)Cc1c[nH]cn1)[C@@H](C)O)C(C)C)C(=O)N[C@@H](C)C(=O)N[C@@](C)(Cc1ccccc1)C(=O)N[C@H](C(=O)N[C@H](C(=O)N[C@@](C)(CCCCN)C(=O)NCC(=O)NCC(N)=O)C(C)C)C(C)C [compound 28] (H-H[Aib]EGS[αMeF]TEDV[αMeS]S[αMeF]LEGEAA[αMeK]E[αMeF]IA[αMeF]VV[αMeK]GG-NH2; N-terminus assumed) | 4620 |
| CC[C@H](C)[C@H](NC(=O)[C@](C)(Cc1ccccc1)NC(=O)[C@H](CCC(=O)O)NC(=O)[C@](C)(CCCCN)NC(=O)[C@H](C)NC(=O)[C@H](C)NC(=O)[C@H](CCC(=O)O)NC(=O)CNC(=O)[C@H](CCC(=O)O)NC(=O)[C@H](CC(C)C)NC(=O)[C@](C)(Cc1ccccc1)NC(=O)[C@H](CO)NC(=O)[C@](C)(CO)NC(=O)[C@@H](NC(=O)[C@H](CC(=O)O)NC(=O)[C@@H](NC(=O)[C@@H](NC(=O)[C@](C)(Cc1ccccc1)NC(=O)[C@H](CO)NC(=O)CNC(=O)[C@H](CCC(=O)O)NC(=O)C(C)(C)NC(=O)[C@@H](N)Cc1c[nH]cn1)[C@@H](C)O)[C@@H](C)O)C(C)C)C(=O)N[C@@H](C)C(=O)N[C@@](C)(Cc1ccccc1)C(=O)N[C@H](C(=O)N[C@H](C(=O)N[C@@](C)(CCCCN)C(=O)NCC(=O)NCC(N)=O)C(C)C)C(C)C [compound 29] (H-H[Aib]EGS[αMeF]TTDV[αMeS]S[αMeF]LEGEAA[αMeK]E[αMeF]IA[αMeF]VV[αMeK]GG-NH2) | 801 |

The next lines start with the values.

| EC50 [pM] | SMILES |
| --- | --- |
| 5.1 | CC[C@H](C)[C@H](NC(=O)[C@H](Cc1ccccc1)NC(=O)[C@H](CCC(=O)O)NC(=O)[C@H](CCCCN)NC(=O)[C@H](C)NC(=O)[C@H](C)NC(=O)[C@H](CCC(N)=O)NC(=O)CNC(=O)[C@H](CCC(=O)O)NC(=O)[C@H](CC(C)C)NC(=O)[C@H](Cc1ccc(O)cc1)NC(=O)[C@H](CO)NC(=O)[C@H](CO)NC(=O)[C@@H](NC(=O)[C@H](CC(=O)O)NC(=O)[C@H](CO)NC(=O)[C@@H](NC(=O)[C@H](Cc1ccccc1)NC(=O)[C@@H](NC(=O)CNC(=O)[C@H](CCC(=O)O)NC(=O)C(C)(C)NC(=O)[C@@H](N)Cc1c[nH]cn1)[C@@H](C)O)[C@@H](C)O)C(C)C)C(=O)N[C@@H](C)C(=O)N[C@@H](Cc1c[nH]c2ccccc12)C(=O)N[C@@H](CC(C)C)C(=O)N[C@H](C(=O)N[C@@H](CCCCN)C(=O)NCC(=O)N[C@@H](CCCNC(=N)N)C(=O)N[C@@H](CCCCNC(=O)COCCOCCNC(=O)COCCOCCNC(=O)CC[C@H](NC(=O)CCCCCCCCCCCCCCCCC(=O)O)C(=O)O)C(N)=O)C(C)C [compound 6] |
| 1200 | CC[C@H](C)[C@H](NC(=O)[C@](C)(Cc1ccccc1)NC(=O)[C@H](CCC(=O)O)NC(=O)[C@](C)(CCCCN)NC(=O)[C@H](C)NC(=O)[C@H](C)NC(=O)[C@H](CCC(=O)O)NC(=O)CNC(=O)[C@H](CCC(=O)O)NC(=O)[C@H](CC(C)C)NC(=O)[C@](C)(Cc1ccccc1)NC(=O)[C@H](CO)NC(=O)[C@H](CO)NC(=O)[C@@H](NC(=O)[C@H](CCC(=O)O)NC(=O)[C@H](CO)NC(=O)[C@H](CO)NC(=O)[C@](C)(Cc1ccccc1)NC(=O)[C@H](CO)NC(=O)CNC(=O)[C@H](CCC(=O)O)NC(=O)C(C)(C)NC(=O)[C@@H](N)Cc1c[nH]cn1)C(C)C)C(=O)N[C@@H](C)C(=O)N[C@@](C)(Cc1ccccc1)C(=O)N[C@H](C(=O)N[C@H](C(=O)N[C@@](C)(CCCCN)C(=O)NCC(=O)NCC(N)=O)C(C)C)C(C)C [compound 9] (H-H[Aib]EGS[αMeF]SSEVSS[αMeF]LEGEAA[αMeK]E[αMeF]IA[αMeF]VV[αMeK]GG-NH2; N-terminus assumed) |
| 118 | CC[C@H](C)[C@H](NC(=O)[C@H](Cc1ccccc1)NC(=O)[C@H](CCC(=O)O)NC(=O)[C@H](CCCCN)NC(=O)[C@H](C)NC(=O)[C@H](C)NC(=O)[C@H](CCC(N)=O)NC(=O)CNC(=O)[C@H](CCC(=O)O)NC(=O)[C@H](CC(C)C)NC(=O)[C@H](Cc1ccc(O)cc1)NC(=O)[C@H](CO)NC(=O)C(C)(C)NC(=O)[C@@H](NC(=O)[C@H](CC(=O)O)NC(=O)[C@H](CO)NC(=O)[C@@H](NC(=O)[C@H](Cc1ccccc1)NC(=O)[C@@H](NC(=O)CNC(=O)[C@H](CCC(=O)O)NC(=O)C(C)(C)NC(=O)[C@@H](N)Cc1c[nH]cn1)[C@@H](C)O)[C@@H](C)O)C(C)C)C(=O)N[C@@H](C)C(=O)N[C@@H](Cc1c[nH]c2ccccc12)C(=O)N[C@@H](CC(C)C)C(=O)N[C@H](C(=O)N[C@@H](CCCCN)C(=O)NCC(=O)N[C@@H](CCCNC(=N)N)C(N)=O)C(C)C [compound 22] (H-H[Aib]EGTFTSDV[Aib]SYLEGQAAKEFIAWLVKGR-NH2; N-terminus assumed) |

Same assay, conditions: cAMP activity; second determination (n2); read-out: Primary assay EC50 GLP-1R n2

| EC50 [pM] | SMILES |
| --- | --- |
| 4700 | CC[C@H](C)[C@H](NC(=O)[C@](C)(Cc1ccccc1)NC(=O)[C@H](CCC(=O)O)NC(=O)[C@](C)(CCCCN)NC(=O)[C@H](C)NC(=O)[C@H](C)NC(=O)[C@H](CCC(=O)O)NC(=O)CNC(=O)[C@H](CCC(=O)O)NC(=O)[C@H](CC(C)C)NC(=O)[C@](C)(Cc1ccccc1)NC(=O)[C@H](CO)NC(=O)[C@](C)(CO)NC(=O)[C@@H](NC(=O)[C@H](CC(=O)O)NC(=O)[C@H](CCC(=O)O)NC(=O)[C@@H](NC(=O)[C@](C)(Cc1ccccc1)NC(=O)[C@H](CO)NC(=O)CNC(=O)[C@H](CCC(=O)O)NC(=O)C(C)(C)NC(=O)[C@@H](N)Cc1c[nH]cn1)[C@@H](C)O)C(C)C)C(=O)N[C@@H](C)C(=O)N[C@@](C)(Cc1ccccc1)C(=O)N[C@H](C(=O)N[C@H](C(=O)N[C@@](C)(CCCCN)C(=O)NCC(=O)NCC(N)=O)C(C)C)C(C)C [compound 28] (H-H[Aib]EGS[αMeF]TEDV[αMeS]S[αMeF]LEGEAA[αMeK]E[αMeF]IA[αMeF]VV[αMeK]GG-NH2; N-terminus assumed) |
